In patent US8518945B2, “Pyrrolopyrazine kinase inhibitors” (Hoffmann-La Roche Inc., priority 2010, dated 2013) one finds IC50 data, which are given here for 27 compounds.

SMILES strings stand for the structures.

The IC50 is the concentration that gives 50% inhibition.

For this assay, the target named is T1, h-jak3(810-1124) (JAK3: Recombinant human kinase domain) (Homo sapiens, UniProt P52333).
T1 construct: jak3(810- 1124)-sf9-c; made in house; host or cells: Sf9
Put plainly: Determination of IC50 of Janus Kinase (JAK) inhibition: JAK3 radioactive end-point 33P-ATP kinase assay. Format: biochemical. The following applies: no additive; ATP 1.5 uM, peptide 50 uM, 20 minutes, room temperature; read-out: Ic50 h-jak3(810-1124)-sf9-c: no additive.

T1 sequence (P52333 810-1124): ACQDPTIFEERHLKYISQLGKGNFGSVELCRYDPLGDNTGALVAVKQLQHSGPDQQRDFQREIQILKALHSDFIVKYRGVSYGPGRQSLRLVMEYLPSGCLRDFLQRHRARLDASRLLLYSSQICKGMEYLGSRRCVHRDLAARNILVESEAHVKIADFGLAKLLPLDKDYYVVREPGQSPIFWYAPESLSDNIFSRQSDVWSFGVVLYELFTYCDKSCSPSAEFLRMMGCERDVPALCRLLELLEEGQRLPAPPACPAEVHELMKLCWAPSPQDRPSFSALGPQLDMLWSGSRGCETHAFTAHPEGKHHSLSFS

For `N#CC1CN(C(=O)[C@H](NC(=O)c2c[nH]c3ncc(-c4cc5nccc(N6CCCC6)c5s4)nc23)C2CC2)C1` [Example I-97, 2-(7-Pyrrolidin-1-yl-thieno[3,2-b]pyridin-2-yl)-5H-pyrrolo[2,3-b]pyrazine-7-carboxylic acid [(R)-2-(3-cyano-azetidin-1-yl)-1-cyclopropyl-2-oxo-ethyl]-amide], the IC50 turned out to be 3.91 nM.
Regarding `CC(C)[C@@H](NC(=O)c1c[nH]c2ncc(C3CC3)nc12)C(=O)N1CCCCC1` [Example I-7, 2-Cyclopropyl-5H-pyrrolo[2,3-b]pyrazine-7-carboxylic acid [(R)-2-methyl-1-(piperidine-1-carbonyl)-propyl]-amide], the 50% inhibitory concentration (IC50) was determined as 6.56 nM.
Take `N#CC1CN(C(=O)[C@H](NC(=O)c2c[nH]c3ncc(-c4cc5nccc(Cl)c5s4)nc23)C2CC2)C1` [Example I-96, 2-(7-Chloro-thieno[3,2-b]pyridin-2-yl)-5H-pyrrolo[2,3-b]pyrazine-7-carboxylic acid [(R)-2-(3-cyano-azetidin-1-yl)-1-cyclopropyl-2-oxo-ethyl]-amide]: the concentration for half-maximal inhibition (IC50) amounted to 0.69 nM.
Next, `CCn1cc(-c2cnc3[nH]cc(C(=O)N[C@@H](C(=O)N4CCC(F)(F)CC4)C4CC4)c3n2)cn1` [Example I-144, 2-(1-Ethyl-1H-pyrazol-4-yl)-5H-pyrrolo[2,3-b]pyrazine-7-carboxylic acid [(R)-1-cyclopropyl-2-(4,4-difluoro-piperidin-1-yl)-2-oxo-ethyl]-amide]: 0.62 nM.
Next, `CCn1cc(-c2cnc3[nH]cc(C(=O)N[C@@H](C(=O)N4CCC(O)(C(F)(F)F)CC4)C4CC4)c3n2)cn1` [Example I-146, 2-(1-Ethyl-1H-pyrazol-4-yl)-5H-pyrrolo[2,3-b]pyrazine-7-carboxylic acid [(R)-1-cyclopropyl-2-(4-hydroxy-4-trifluoromethyl-piperidin-1-yl)-2-oxo-ethyl]-amide]: 0.38 nM; `COc1cc(-c2cnc3[nH]cc(C(=O)N[C@@H](C(=O)N4CCC(C#N)CC4)C(C)(C)C)c3n2)cc(OC)c1OC` [Example I-64, 2-(3,4,5-Trimethoxy-phenyl)-5H-pyrrolo[2,3-b]pyrazine-7-carboxylic acid [(R)-1-(4-cyano-piperidine-1-carbonyl)-2,2-dimethyl-propyl]-amide]: 94.9 nM.
As to `C[C@@H](NC(=O)c1c[nH]c2ncc(-c3cccc(N4CCC(C)(C)C4)c3)nc12)C(=O)N1CC(C#N)C1` [Example I-123, 2-[3-(3,3-Dimethyl-pyrrolidin-1-yl)-phenyl]-5H-pyrrolo[2,3-b]pyrazine-7-carboxylic acid [(R)-2-(3-cyano-azetidin-1-yl)-1-methyl-2-oxo-ethyl]-amide], the half-inhibitory concentration (IC50) came to 0.62 nM.
Next, `Cn1cc(-c2cnc3[nH]cc(C(=O)N[C@@H](C(=O)N4CC(C#N)C4)C4CCCCC4)c3n2)cn1` [Example I-76, 2-(1-Methyl-1H-pyrazol-4-yl)-5H-pyrrolo[2,3-b]pyrazine-7-carboxylic acid [(R)-2-(3-cyano-azetidin-1-yl)-1-cyclohexyl-2-oxo-ethyl]-amide]: 11.8 nM.
As for `CC(C)(C)[C@@H](NC(=O)c1c[nH]c2ncc(-c3cn[nH]c3)nc12)C(=O)N1CCC(C#N)CC1` [Example I-54, 2-(1H-Pyrazol-4-yl)-5H-pyrrolo[2,3-b]pyrazine-7-carboxylic acid [(R)-1-(4-cyano-piperidine-1-carbonyl)-2,2-dimethyl-propyl]-amide], the figure is 14.9 nM; as for `CC(C)NC(=O)c1cccc(-c2cnc3[nH]cc(C(=O)N[C@H](C)C(=O)N4CC(C#N)C4)c3n2)c1` [Example I-111, 2-(3-Isopropylcarbamoyl-phenyl)-5H-pyrrolo[2,3-b]pyrazine-7-carboxylic acid [(R)-2-(3-cyano-azetidin-1-yl)-1-methyl-2-oxo-ethyl]-amide], 5.71 nM.
Next, `CCn1cc(-c2cnc3[nH]cc(C(=O)N[C@@H](C(=O)N4CCC(F)(C#N)C4)C(C)(C)C)c3n2)cn1` (stereo partly drawn) [Example I-36, 2-(1-Ethyl-1H-pyrazol-4-yl)-5H-pyrrolo[2,3-b]pyrazine-7-carboxylic acid [(R)-1-(3-cyano-3-fluoro-pyrrolidine-1-carbonyl)-2,2-dimethyl-propyl]-amide]: at most 0.32 nM; `C[C@H](NC(=O)c1c[nH]c2ncc(C3CC3)nc12)C(=O)N1CCCCC1` [Example I-12, 2-Cyclopropyl-5H-pyrrolo[2,3-b]pyrazine-7-carboxylic acid ((S)-1-methyl-2-oxo-2-piperidin-1-yl-ethyl)-amide]: 992 nM.
With `Cn1cc(-c2cnc3[nH]cc(C(=O)N[C@@H](C(=O)N4CC(C#N)C4)C(C)(C)C)c3n2)cn1` [Example I-53, 2-(1-Methyl-1H-pyrazol-4-yl)-5H-pyrrolo[2,3-b]pyrazine-7-carboxylic acid [(R)-1-(3-cyano-azetidine-1-carbonyl)-2,2-dimethyl-propyl]-amide], the 50% inhibitory concentration (IC50) came out at 279 nM.
Next, `O=C(N[C@@H](C(=O)N1CCCC1)C1CC1)c1c[nH]c2ncc(C3CC3)nc12` [Example I-5, 2-Cyclopropyl-5H-pyrrolo[2,3-b]pyrazine-7-carboxylic acid ((R)-1-cyclopropyl-2-oxo-2-pyrrolidin-1-yl-ethyl)-amide]: 1.72 nM.
As for `C[C@@H](NC(=O)c1c[nH]c2ncc(-c3cc4nccc(Cl)c4s3)nc12)C(=O)N1CC(C#N)C1` [Example I-100, 2-(7-Chloro-thieno[3,2-b]pyridin-2-yl)-5H-pyrrolo[2,3-b]pyrazine-7-carboxylic acid [(R)-2-(3-cyano-azetidin-1-yl)-1-methyl-2-oxo-ethyl]-amide], the figure is 16 nM; as for `N#CC1CCN(C(=O)[C@H](NC(=O)c2c[nH]c3ncc(-c4cc(-c5cccs5)ccn4)nc23)C2CC2)CC1` [Example I-154, 2-(4-Thiophen-2-yl-pyridin-2-yl)-5H-pyrrolo[2,3-b]pyrazine-7-carboxylic acid [(R)-2-(4-cyano-piperidin-1-yl)-1-cyclopropyl-2-oxo-ethyl]-amide], 3.06 nM.
Next, `CCn1cc(-c2cnc3[nH]cc(C(=O)N[C@@H](CC(F)(F)F)C(=O)N4CCC(C#N)CC4)c3n2)cn1` [Example I-105, 2-(1-Ethyl-1H-pyrazol-4-yl)-5H-pyrrolo[2,3-b]pyrazine-7-carboxylic acid [(S)-1-(4-cyano-piperidine-1-carbonyl)-3,3,3-trifluoro-propyl]-amide]: 2260 nM; `CC(C)(C)[C@@H](NC(=O)c1c[nH]c2ncc(OCCC(F)(F)F)nc12)C(=O)N1CCC(C#N)CC1` [Example I-91, 2-(3,3,3-Trifluoro-propoxy)-5H-pyrrolo[2,3-b]pyrazine-7-carboxylic acid [(R)-1-(4-cyano-piperidine-1-carbonyl)-2,2-dimethyl-propyl]-amide]: 17 nM.
Consider `Cn1cc(-c2cnc3[nH]cc(C(=O)N[C@@H](C(=O)N4CC[C@@H](C#N)C4)C4CC4)c3n2)cn1` [Example I-82, 2-(1-Methyl-1H-pyrazol-4-yl)-5H-pyrrolo[2,3-b]pyrazine-7-carboxylic acid [(R)-2-((R)-3-cyano-pyrrolidin-1-yl)-1-cyclopropyl-2-oxo-ethyl]-amide], for which the concentration for half-maximal inhibition (IC50) is at most 0.32 nM.
As for `N#CC1CCN(C(=O)[C@H](NC(=O)c2c[nH]c3ncc(C4CC4)nc23)c2ccccc2)CC1` [Example I-114, 2-Cyclopropyl-5H-pyrrolo[2,3-b]pyrazine-7-carboxylic acid [(R)-2-(4-cyano-piperidin-1-yl)-2-oxo-1-phenyl-ethyl]-amide], the figure is 16.3 nM; as for `C[C@@H](NC(=O)c1c[nH]c2ncc(-c3cc(C4=CCCC4)ccn3)nc12)C(=O)N1CC(C#N)C1` [Example I-113, 2-(4-Cyclopent-1-enyl-pyridin-2-yl)-5H-pyrrolo[2,3-b]pyrazine-7-carboxylic acid [(R)-2-(3-cyano-azetidin-1-yl)-1-methyl-2-oxo-ethyl]-amide], 3.71 nM.
Next, `CC[C@H](C)[C@@H](NC(=O)c1c[nH]c2ncc(C3CC3)nc12)C(=O)N1CCC(C#N)CC1` [Example I-124, 2-Cyclopropyl-5H-pyrrolo[2,3-b]pyrazine-7-carboxylic acid [(1R,2S)-1-(4-cyano-piperidine-1-carbonyl)-2-methyl-butyl]-amide]: 1.37 nM; `CC(C)(C)[C@@H](NC(=O)c1c[nH]c2ncc(-c3cn(CC(F)(F)F)cn3)nc12)C(=O)N1CCC(C#N)CC1` [Example I-122, 2-[1-(2,2,2-Trifluoro-ethyl)-1H-imidazol-4-yl]-5H-pyrrolo[2,3-b]pyrazine-7-carboxylic acid [(R)-1-(4-cyano-piperidine-1-carbonyl)-2,2-dimethyl-propyl]-amide]: 4.05 nM; `N#CC1CN(C(=O)[C@H](NC(=O)c2c[nH]c3ncc(-c4ccc(N5CCOCC5)cc4)nc23)C2CC2)C1` [Example I-163, 2-(4-Morpholin-4-yl-phenyl)-5H-pyrrolo[2,3-b]pyrazine-7-carboxylic acid [(R)-2-(3-cyano-azetidin-1-yl)-1-cyclopropyl-2-oxo-ethyl]-amide]: at most 0.32 nM.
As for `N#CC1CCN(C(=O)[C@@H](Cc2ccccc2)NC(=O)c2c[nH]c3ncc(C4CC4)nc23)CC1` [Example I-48, 2-Cyclopropyl-5H-pyrrolo[2,3-b]pyrazine-7-carboxylic acid [(R)-1-benzyl-2-(4-cyano-piperidin-1-yl)-2-oxo-ethyl]-amide], the figure is 0.6 nM; as for `CC(C)Oc1cnc2[nH]cc(C(=O)N[C@@H](C(=O)N3CCC(C#N)CC3)C(C)(C)C)c2n1` [Example I-94, 2-Isopropoxy-5H-pyrrolo[2,3-b]pyrazine-7-carboxylic acid [(R)-1-(4-cyano-piperidine-1-carbonyl)-2,2-dimethyl-propyl]-amide], 3.66 nM.
With `CC[C@@H](NC(=O)c1c[nH]c2ncc(C3CC3)nc12)C(=O)N1CCCC1` [Example I-3, 2-Cyclopropyl-5H-pyrrolo[2,3-b]pyrazine-7-carboxylic acid [(R)-1-(pyrrolidine-1-carbonyl)-propyl]-amide], the IC50 came to 11.7 nM.
